Values of other authors in PMC7126291 (Bioorganic & Medicinal Chemistry Letters, 2009).

What was measured:
human rhinovirus = conditions: Phase II clinical trials, intranasal delivery

Compound | IC50 (HAV 3C^pro) | reduction of mean total daily symptom score (human rhinovirus)
O=C(Oc1cncc(Br)c1)c1ccco1 [Compound 7] | 53 nM | –
CCOC(=O)/C=C/[C@H](C[C@@H]1CCNC1=O)NC(=O)[C@@H](CC(=O)[C@@H](NC(=O)c1cc(C)on1)C(C)C)Cc1ccc(F)cc1 [rupintrivir] | – | 33%
